Experimental data from US20250188079A1, “INHIBITING CYCLIC AMP-RESPONSIVE ELEMENT-BINDING PROTEIN (CREB)” (Forma Therapeutics, Inc., priority 2019, published 2025).

Molecular target: CBP (Homo sapiens (Human), UniProt Q92793)
Assay: HTRF biochemical assay for CBP activity (TR-FRET, bromodomain)
Assay type: binding
Settings: geometric mean, 10-point 3-fold dilution 33 μM to 1.7 nM, read-out: BROMO IC50 TRF TB CBP (μM gmean)
Method in brief: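 IC50 derives from a 4-parameter logistic fit of % inhibition, calculated from the 520/490 nm TR-FRET ratio against DMSO and no-enzyme controls. Final compound levels spanned 33 μM to 1.7 nM (10 points, 3-fold), with CBP and peptide ligand in Hepes pH 7.5/GSH/BGG/BSA/Triton buffer, incubated at room temperature for varying times.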

Sequence of CBP (Q92793 1085-1192): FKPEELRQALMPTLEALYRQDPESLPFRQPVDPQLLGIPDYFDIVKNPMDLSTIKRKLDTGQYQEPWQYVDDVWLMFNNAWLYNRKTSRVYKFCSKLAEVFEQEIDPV

Compound	IC50 [µM]
COC[C@H](Cc1ccccc1)n1c2ccc3c(c2nc1[C@H]1CC[C@H](C(=O)O)CC1)CN(C(=O)OC)CC3 [Compound 299]	0.1 to 1
COC(=O)N1CCc2c(C(=O)O)cc3c(nc(C4CCCCC4)n3[C@H](C)Cc3ccccc3)c2C1 [Compound 300]	0.1 to 1
COC(=O)N1CCc2ccc3c(nc([C@H]4CC[C@H](S(N)(=O)=O)CC4)n3[C@H](C)Cc3ccccc3)c2C1 [Compound 301]	0.1 to 1
COC(=O)N1CCc2ccc3c(nc([C@H]4CC[C@H](C(=O)O)CC4)n3[C@H](C)C[C@@H]3CCCCO3)c2C1 [Compound 302]	0.1 to 1
COC(=O)N1CCc2ccc3c(nc(-c4ccccn4)n3[C@H](C)Cc3ccccc3)c2C1 [Compound 304]	0.1 to 1
COC(=O)N1CCc2c(Cl)cc3c(nc([C@H]4CC[C@H](C(=O)O)CC4)n3[C@H](C)Cc3ccccc3)c2C1 [Compound 305]	0.1 to 1
COC(=O)N1CCc2ccc3c(nc(N4CCC[C@H](C(=O)O)C4)n3C[C@H](C)c3ccccc3)c2C1 [Compound 306]	0.1 to 1
COC(=O)N1CCc2ccc3c(nc(N4CCC(C(=O)O)CC4)n3[C@H](C)Cc3cc(F)cc(F)c3)c2C1 [Compound 308]	0.1 to 1
COC(=O)N1CCc2ccc3c(nc([C@H]4CC[C@](C)(C(=O)O)CC4)n3[C@H](C)Cn3cc(Cl)cn3)c2C1 [Compound 309]	0.1 to 1
COC(=O)N1CCc2ccc3c(nc([C@H]4CC[C@@H](S(N)(=O)=O)CC4)n3[C@H](C)Cc3ccccc3)c2C1 [Compound 310]	0.1 to 1
COC(=O)N1CCc2ccc3c(nc([C@H]4CC[C@H](C(=O)O)CC4)n3[C@H](C)Cn3ncc4ccccc43)c2C1 [Compound 311]	0.1 to 1
COC(=O)N1CCc2ccc3c(nc([C@H]4CC[C@H](C(=O)O)CC4)n3[C@H](C)Cc3ccccc3)c2C1 [Compound 312]	0.1 to 1
COC(=O)N1CCc2ccc3c(nc(N4CCC(C(=O)CO)CC4)n3[C@H](C)Cc3ccccc3)c2C1 [Compound 313]	0.1 to 1
COC(=O)N1CCc2ccc3c(nc([C@H]4CC[C@H](C(=O)O)CC4)n3[C@@H](C)Cc3ccccc3F)c2C1 [Compound 314]	0.1 to 1
COC(=O)N1CCc2ccc3c(nc([C@H]4CC[C@H](C(=O)O)CC4)n3[C@H]3CCc4ccccc4C3)c2C1 [Compound 315]	0.1 to 1
COC(=O)N1CCc2ccc3c(nc([C@H]4CC[C@H](S(=O)(=O)NC(C)=O)CC4)n3[C@H](C)Cc3ccccc3)c2C1 [Compound 316]	0.1 to 1
COC(=O)N1CCc2ccc3c(nc([C@H]4CC[C@H](C(=O)O)CC4)n3[C@H](C)C[C@H]3CC[C@H](OC(F)(F)F)CC3)c2C1 [Compound 317]	0.1 to 1
COC(=O)N1CCc2ccc3c(nc([C@H]4CC[C@H](C(=O)O)CC4)n3[C@H](C)Cc3c(C)cccc3C)c2C1 [Compound 318]	0.1 to 1
COC(=O)N1CCc2ccc3c(nc(C4CCN(S(C)(=O)=O)CC4)n3[C@H](C)Cc3ccccc3)c2C1 [Compound 319]	0.1 to 1
COC(=O)N1CCc2ccc3c(nc(-c4cccc(C(C)(C)C(=O)O)c4)n3[C@H](C)Cn3cc(Cl)cn3)c2C1 [Compound 320]	0.1 to 1
COC(=O)N1CCc2ccc3c(nc(-c4ccc(C(=O)O)c(OC)c4)n3[C@H](C)Cc3ccccc3)c2C1 [Compound 321]	0.1 to 1
COC(=O)N1CCc2ccc3c(nc(-c4cccc(CC(=O)O)c4)n3[C@H](C)Cc3cc(F)cc(F)c3)c2C1 [Compound 322]	0.1 to 1
COC(=O)N1CCc2ccc3c(nc(C4CCN(C(C)=O)CC4)n3[C@@H](C)Cc3ccccc3)c2C1 [Compound 323]	0.1 to 1
COC(=O)N1CCc2ccc3c(nc(N4CCN(C(C)=O)CC4)n3[C@@H](C)Cc3ccccc3)c2C1 [Compound 324]	0.1 to 1
COC(=O)N1CCc2ccc3c(nc(-c4ccncc4)n3[C@H](C)Cc3ccccc3)c2C1 [Compound 326]	0.1 to 1
COC(=O)N1CCc2ccc3c(nc(-c4ccc(C(C)(C)C(=O)O)cc4)n3[C@H](C)Cn3cc(Cl)cn3)c2C1 [Compound 327]	0.1 to 1
COC(=O)N1Cc2c(ccc3c2nc(C2CCCCC2)n3Cc2ccccc2)CC1C (stereo not shown) [Compound 328]	0.1 to 1
COC(=O)N1CCc2ccc3c(nc([C@@H]4CC[C@H](C(=O)O)C4)n3[C@H](C)Cc3ccccc3C)c2C1 [Compound 329]	0.1 to 1

Compound	IC50 [µM]
COC(=O)N1CCc2ccc3c(nc(C4CCN(S(N)(=O)=O)CC4)n3[C@H](C)Cc3ccccc3)c2C1 [Compound 330]	0.1 to 1
COC(=O)N1CCc2ccc3c(nc(C4CCN(S(C)(=O)=O)CC4)n3[C@H](C)Cc3cccc(C(=O)O)c3)c2C1 [Compound 331]	0.1 to 1
COC(=O)N1CCc2ccc3c(nc([C@H]4CC[C@H](C(=O)O)CC4)n3[C@H](C)Cc3ccc4c(c3)CCO4)c2C1 [Compound 332]	0.1 to 1
COC(=O)N1CCc2ccc3c(nc([C@H]4CC[C@](C)(C(=O)O)CC4)n3[C@H](C)Cc3ccccc3)c2C1 [Compound 333]	0.1 to 1
COC(=O)N1CCc2ccc3c(nc([C@H]4CC[C@H](C(=O)O)CC4)n3[C@H](C)Cc3cccc(C)c3)c2C1 [Compound 334]	0.1 to 1
COC(=O)N1CCc2ccc3c(nc([C@H]4CC[C@H](C(=O)O)CC4)n3[C@@H]3CCc4ccccc4C3)c2C1 [Compound 335]	0.1 to 1
COC(=O)N1CCc2ccc3c(nc([C@H]4CC[C@@H](C(=O)O)CC4)n3CCc3ccccc3)c2C1 [Compound 336]	0.1 to 1
COC(=O)N1CCc2ccc3c(nc(N4CCN(C(=O)C5COC5)CC4)n3[C@@H](C)Cc3ccccc3)c2C1 [Compound 337]	0.1 to 1
COC(=O)N1CCc2ccc3c(nc([C@H]4CC[C@H](C(=O)O)CC4)n3[C@@H](C)C(F)(F)c3ccccc3)c2C1 [Compound 338]	0.1 to 1
COC(=O)N1CCc2ccc3c(nc(N4CCC[C@H](C(=O)O)C4)n3[C@H](C)Cc3ccccc3)c2C1 [Compound 339]	0.1 to 1
COC(=O)N1CCc2ccc3c(nc([C@H]4C[C@@H](C(=O)O)C4)n3[C@H](C)Cc3ccccc3C)c2C1 [Compound 340]	0.1 to 1
COC(=O)N1CCc2ccc3c(nc([C@H]4CC[C@@](C)(C(=O)O)CC4)n3[C@@H](CO)Cc3ccccc3)c2C1 [Compound 341]	0.1 to 1
COC(=O)N1CCc2ccc3c(nc(C4CS(=O)(=O)C4)n3CCc3ccccc3)c2C1 [Compound 342]	0.1 to 1
COC(=O)N1CCc2ccc3c(nc(N4CCN(S(C)(=O)=O)CC4)n3[C@H](C)Cn3cc(Cl)cn3)c2C1 [Compound 343]	0.1 to 1
COC(=O)N1CCc2ccc3c(nc([C@H]4CCC[C@H](C(=O)O)C4)n3[C@H](C)Cc3ccccc3)c2C1 [Compound 344]	0.1 to 1
COC(=O)N1CCc2ccc3c(nc(C4CCNCC4)n3CCc3ccccc3)c2C1 [Compound 345]	0.1 to 1
COC(=O)N1CCc2ccc3c(nc(C4CCN(C(C)=O)CC4)n3[C@H](C)Cc3cccnc3)c2C1 [Compound 346]	0.1 to 1
COC(=O)N1CCc2ccc3c(nc(N4CCNCC4)n3[C@H](C)Cc3ccccc3)c2C1 [Compound 347]	1 to 1000
COC(=O)N1CCc2ccc3c(nc(C4CCN(S(=O)(=O)NC(C)=O)CC4)n3[C@H](C)Cc3ccccc3)c2C1 [Compound 348]	1 to 1000
COC(=O)N1CCc2ccc3c(nc([C@H]4CC[C@H](C(=O)O)CC4)n3CC(F)(F)c3ccccc3)c2C1 [compound 145]	0.001 to 0.01
(1R,3R)-3-[3-[(2R)-2-(3,4-difluorophenyl)propyl]-8-(methoxycarbonyl)-3H,6H,7H,8H,9H-imidazo[4,5-h]isoquinolin-2-yl]cyclohexane-1-carboxylic acid [Compound 28]	0.001 to 0.01
(1S,3S)-3-[3-[(2R)-1-(3,4-difluorophenyl)propan-2-yl]-8-(methoxycarbonyl)-3H,6H,7H,8H,9H-imidazo[4,5-h]isoquinolin-2-yl]cyclohexane-1-carboxylic acid [Compound 31]	0.001 to 0.01
(1S,3S)-3-[3-[(2S)-1-(3,4-difluorophenyl)propan-2-yl]-8-(methoxycarbonyl)-3H,6H,7H,8H,9H-imidazo[4,5-h]isoquinolin-2-yl]cyclohexane-1-carboxylic acid [Compound 60]	0.001 to 0.01
(1S,3S)-3-[3-[(2S)-2-(3,4-difluorophenyl)propyl]-8-(methoxycarbonyl)-3H,6H,7H,8H,9H-imidazo[4,5-h]isoquinolin-2-yl]cyclohexane-1-carboxylic acid [Compound 29]	0.001 to 0.01
(2R)-3-[2-cyclohexyl-8-(methoxycarbonyl)-3H,6H,7H,8H,9H-imidazo[4,5-h]isoquinolin-3-yl]-2-(5-fluoro-2-methoxyphenyl)propanoic acid [Compound 241]	0.01 to 0.1
(3R)-4-[2-cyclohexyl-8-(methoxycarbonyl)-3H,6H,7H,8H,9H-imidazo[4,5-h]isoquinolin-3-yl]-3-(3-fluoro-5-methoxyphenyl)butanoic acid [Compound 194]	0.01 to 0.1
(3S)-4-[2-cyclohexyl-8-(methoxycarbonyl)-3H,6H,7H,8H,9H-imidazo[4,5-h]isoquinolin-3-yl]-3-(3-fluoro-5-methoxyphenyl)butanoic acid [Compound 10]	0.001 to 0.01
